Experimental data published in patent US9066960B2, “Use of the effective fraction of alkaloids from mulberry twig in preparing hypoglycemic agents” (INSTITUTE OF MATARIA MEDICA, CHINESE ACADEMY OF MEDICAL …, priority 2006, dated 2015).

System: α-glucosidase
Test: α-glucosidase inhibitor activity
Assay type: biochemical

Activity among the alkaloids of the effective fraction: the activity is also the highest
Structure (SMILES): OCC1NCC(O)C(O)C1O (stereo not shown) [1-deoxynojirimycin]
